Values after ≈ are worked out from the molar mass of the structure shown.
How the values were obtained:
[1] = test system: Past. mult 59A006; experiment: in vitro MIC, Inocula Replicating Device, anaerobic Gas Pac, BHI agar; type: cell-based; settings: unit assumed
[2] = test system: Past. mult 59A004; experiment: as above; type: cell-based; settings: unit assumed
[3] = test system: Strep. equi 021001; experiment: as above; type: cell-based; settings: unit assumed
[4] = test system: Staph. aureus 01A106; experiment: as above; type: cell-based; settings: unit assumed
[5] = test system: E. Coli 51A-266; experiment: as above; type: cell-based; settings: unit assumed
[6] = test system: Strep. zoo 02-H001; experiment: as above; type: cell-based; settings: unit assumed
[7] = test system: Sal. typhim 58D011; experiment: as above; type: cell-based; settings: unit assumed
[8] = test system: Sal. cholsu 58B242; experiment: as above; type: cell-based; settings: unit assumed
[9] = test system: Aer. hydro 72B001; experiment: as above; type: cell-based; settings: unit assumed
[10] = test system: Sal. dublin 58U001; experiment: as above; type: cell-based; settings: unit assumed
[11] = test system: E. Coli 51A-218; experiment: as above; type: cell-based; settings: unit assumed
[12] = test system: Staph. aureus 01A005; experiment: as above; type: cell-based; settings: unit assumed
[13] = test system: Strep. pyogen 02C203; experiment: as above; type: cell-based; settings: unit assumed
[14] = test system: swine dysentery; experiment: prophylaxis of induced swine dysentery; type: in vivo; settings: 25 ppm or 50 ppm in feed
Text: (§1) In the prophylaxis of two induced diseases, swine dysentery and salmonellosis, excellent results have been obtained. […] In the salmonellosis model, 20 percent of the nonmedicated animals died and 50 percent of the survivors were unthrifty.

[15] = test system: salmonellosis; experiment: prophylaxis of induced salmonellosis; type: in vivo, swine; settings: 50 ppm in feed
Text: as §1

[16] = test system: Treponema hyodysenteriae; experiment: MIC against Treponema hyodysenteriae on bovine blood/tryptose agar; type: cell-based; settings: about 5% bovine blood, about 3% tryptose agar, unit assumed
Protocol: MIC's against Treponema hyodysenteriae were determined by spreading appropriate dilutions of the microorganism on a growth medium containing about 5% bovine blood and about 3% tryptose agar.

[17] = feed efficiency of swine; type: in vivo; settings: 50 ppm in feed
[18] = test system: E. Coli 51A266; experiment: acute systemic infection in mice, PD50; type: in vivo; settings: Escherichia coli, 0.5, 4 and 24 h after inoculation, ± is 95% confidence
Protocol: (§2) Acute systemic infections in mice have been used to evaluate the in vivo therapeutic activity of Compound 10. These infections are produced by the intraperitoneal injection of standard cultures suspended in hog gastric mucin. Treatment was initiated 0.5 hours after inoculation with the infecting organism and two subsequent doses administered at 4 and 24 hours after inoculation. Efficacy was measured in PD50 values, the dose of the drug in mg/kg required to protect 50% of the treated mice against otherwise lethal infections. These values were calculated based on the number of mice surviving a 4 day post-treatment holding period. The drugs were administered both orally (po) and subcutaneously (sc). The range quoted indicates the 95% confidence level for the PD50.

[19] = test system: Sal. cholsu. 58B242; experiment: acute systemic infection in mice, PD50; type: in vivo; settings: Mus musculus, 0.5, 4 and 24 h after inoculation, ± is 95% confidence
Protocol: as §2

[20] = test system: Past. multi. 59A006; experiment: acute systemic infection in mice, PD50; type: in vivo; settings: Mus musculus, 0.5, 4 and 24 h after inoculation, ± is 95% confidence
Protocol: as §2

[21] = tolerance and pathological examination in swine; type: in vivo
[22] = tolerance in chicks; type: in vivo; settings: 250 ppm

Structure (SMILES) | Primary in vitro Activity (MIC) [1] | Primary in vitro Activity (MIC) [2] | Primary in vitro Activity (MIC) [3] | Primary in vitro Activity (MIC) [4] | Primary in vitro Activity (MIC) [5] | Primary in vitro Activity (MIC) [6] | Primary in vitro Activity (MIC) [7] | Primary in vitro Activity (MIC) [9] | Primary in vitro Activity (MIC) [10] | Primary in vitro Activity (MIC) [11] | Primary in vitro Activity (MIC) [12] | Primary in vitro Activity (MIC) [13] | Primary in vitro Activity (MIC) [8] | further results
CC(=O)c1c(COC(=O)c2ccc(O)cc2)[n+]([O-])c2ccccc2[n+]1[O-] [Compound 1] | 25 µg/mL | 12.5 µg/mL | < 1.56 µg/mL | 1.56 µg/mL | 50 µg/mL | < 1.56 µg/mL | 50 µg/mL | 6.25 µg/mL | 50 µg/mL | 50 µg/mL | 1.56 µg/mL | 3.12 µg/mL | 50 µg/mL | –
CC(=O)c1c(COC(=O)c2cccc(O)c2)[n+]([O-])c2ccccc2[n+]1[O-] [Compound 2] | 25 µg/mL | 12.5 µg/mL | < 1.56 µg/mL | 6.25 µg/mL | < 100 µg/mL | < 100 µg/mL | < 100 µg/mL | 3.2 µg/mL | < 100 µg/mL | 50 µg/mL | 12.5 µg/mL | 25 µg/mL | < 100 µg/mL | –
O=C(OCc1c(CO)[n+]([O-])c2ccccc2[n+]1[O-])c1ccc(O)cc1 [Compound 4] | 12.5 µg/mL | 100 µg/mL | < 1.56 µg/mL | 3.2 µg/mL | 25 µg/mL | 100 µg/mL | 25 µg/mL | 12.5 µg/mL | 25 µg/mL | 50 µg/mL | 3.2 µg/mL | < 1.56 µg/mL | 50 µg/mL | –
O=C(Cc1ccc(O)cc1)OCc1c(CO)[n+]([O-])c2ccccc2[n+]1[O-] [Compound 6] | 25 µg/mL | 12.5 µg/mL | < 1.56 µg/mL | 1.56 µg/mL | 12.5 µg/mL | 12.5 µg/mL | 25 µg/mL | 1.56 µg/mL | 25 µg/mL | 12.5 µg/mL | 1.56 µg/mL | < 1.56 µg/mL | 25 µg/mL | –
O=C(C=Cc1ccc(O)cc1)OCc1c(CO)[n+]([O-])c2ccccc2[n+]1[O-] [Compound 7] | 25 µg/mL | 12.5 µg/mL | 0.78 µg/mL | 6.25 µg/mL | 12.5 µg/mL | 50 µg/mL | 12.5 µg/mL | 1.56 µg/mL | 25 µg/mL | 12.5 µg/mL | 6.25 µg/mL | 12.5 µg/mL | 25 µg/mL | –
CC(=O)c1c(COC(=O)CCc2ccc(O)cc2)[n+]([O-])c2ccccc2[n+]1[O-] [Compound 10, 2-acetyl-3-Hydroxymethyl-Quinoxaline-1,4-Dioxide-p-Hydroxyphenylpropionic Acid Ester] | 12.5 µg/mL | 25 µg/mL | < 0.39 µg/mL | < 0.39 µg/mL | 25 µg/mL | < 0.39 µg/mL | 12.5 µg/mL | 1.56 µg/mL | 50 µg/mL | 6.25 µg/mL | < 0.39 µg/mL | < 0.39 µg/mL | 50 µg/mL | morbidity in dysentery model ([14]; nonmedicated: 100 percent): no deaths or morbidity; mortality in dysentery model ([14]; nonmedicated: average 36 percent): no deaths; mortality in salmonellosis model ([15]; nonmedicated: 20 percent died): none of the animals on a feed containing 50 ppm of Compound 10 died; animals judged unthrifty in salmonellosis model ([15]; nonmedicated: 50 percent of survivors): 30%; MIC [16]: 0.19 µg/mL (≈ 0.497 µM); increase in feed efficiency of swine [17]: 3%; ED50 ([18]; po): 7.6 ± 4.7 mg/kg; ED50 ([18]; sc): 13.3 ± 8.6 mg/kg; ED50 ([19]; po): 8.4 ± 3.2 mg/kg; ED50 ([19]; sc): 6.9 ± 3.1 mg/kg; ED50 ([20]; po): 13 ± 1.6 mg/kg; ED50 ([20]; sc): 13 ± 1.6 mg/kg; tolerance in swine ([21]; 150 ppm): The same results are observed in swine; adverse effects on pathological examination ([21]; swine, 50 ppm in feed): no adverse effects; tolerance in chicks [22]: extremely well tolerated

Further lines, with some results ahead:

Primary in vitro Activity (MIC) [1] | Primary in vitro Activity (MIC) [2] | Primary in vitro Activity (MIC) [3] | Primary in vitro Activity (MIC) [4] | Primary in vitro Activity (MIC) [5] | Primary in vitro Activity (MIC) [6] | Primary in vitro Activity (MIC) [7] | Primary in vitro Activity (MIC) [9] | Primary in vitro Activity (MIC) [10] | Primary in vitro Activity (MIC) [11] | Primary in vitro Activity (MIC) [12] | Primary in vitro Activity (MIC) [13] | Structure (SMILES) | Primary in vitro Activity (MIC) [8] | further results
6.25 µg/mL | 12.5 µg/mL | < 1.56 µg/mL | 1.56 µg/mL | 12.5 µg/mL | < 1.56 µg/mL | 50 µg/mL | < 1.56 µg/mL | 50 µg/mL | 12.5 µg/mL | 0.78 µg/mL | 6.25 µg/mL | CC(=O)c1c(COC(=O)Cc2ccc(O)cc2)[n+]([O-])c2ccccc2[n+]1[O-] [Compound 3] | 50 µg/mL | –
50 µg/mL | 50 µg/mL | 12.5 µg/mL | 25 µg/mL | 100 µg/mL | 100 µg/mL | 100 µg/mL | 12.5 µg/mL | 100 µg/mL | 100 µg/mL | 25 µg/mL | 50 µg/mL | O=C(CCc1ccc(O)cc1)OCc1c(CO)[n+]([O-])c2ccccc2[n+]1[O-] [Compound 5] | 100 µg/mL | –
50 µg/mL | < 100 µg/mL | 6.25 µg/mL | 12.5 µg/mL | 100 µg/mL | 6.25 µg/mL | 200 µg/mL | 6.25 µg/mL | 100 µg/mL | 50 µg/mL | 12.5 µg/mL | 6.25 µg/mL | O=C(CCc1ccc(O)cc1)OCc1c[n+]([O-])c2ccccc2[n+]1[O-] [Compound 8] | 50 µg/mL | –
12.5 µg/mL | 50 µg/mL | 6.25 µg/mL | 12.5 µg/mL | 50 µg/mL | 6.25 µg/mL | 25 µg/mL | 3.12 µg/mL | 50 µg/mL | 25 µg/mL | 6.25 µg/mL | 3.12 µg/mL | O=C(Cc1ccc(O)cc1)OCc1c[n+]([O-])c2ccccc2[n+]1[O-] [Compound 9] | 12.5 µg/mL | –
